One block for each molecule: values may come before it.
Assay: photoluminescence quantum yield (fraction); solvent given as SMILES

SMILES: Nc1ccccc1/C=C/C(F)(F)F
photoluminescence quantum yield (in C1CCOC1): 0.77

SMILES: COc1ccc(-c2cnc(-c3cccnc3)o2)cc1OC
photoluminescence quantum yield (in ClCCl): 0.98

SMILES: Cc1ccc2oc(-c3cc4cc(C)ccc4oc3=O)cc2c1
photoluminescence quantum yield (in CS(C)=O): 0.83

SMILES: C1=CC2CC1C1C2[C@@]2(c3ccccc3)N=NC1(c1ccccc1)[C@@H]1C[C@H]12 (stereo not given in full)
photoluminescence quantum yield (in CC#N): 0.038

SMILES: CC(C)(C)c1ccc(C2=C(Br)C3=C(c4ccccc4)c4c(Br)c(-c5ccc(C(C)(C)C)cc5)c(-c5ccc(C(C)(C)C)cc5)n4[B-](F)(F)[N+]3=C2c2ccc(C(C)(C)C)cc2)cc1
photoluminescence quantum yield (in C1CCCCC1): 0.13
photoluminescence quantum yield (in C1CCOC1): 0.11
photoluminescence quantum yield (in CC#N): 0.03
photoluminescence quantum yield (in Cc1ccccc1): 0.1
photoluminescence quantum yield (in ClCCl): 0.09

SMILES: Cc1c(C(=O)c2ccc3c4cccc5cccc(c6cccc2c63)c54)c2ccc3cccc4c5cccc6ccc1c(c65)c2c34
photoluminescence quantum yield (in ClCCl): 0.069

SMILES: CC(=O)c1ccc2ccc3c(NCCC(=O)NCCCCCCc4nc5c(=O)[nH]c(N)nc5n4[C@H]4C[C@H](O)[C@@H](CO)O4)ccc4ccc1c2c43
photoluminescence quantum yield (in C1CCOC1): 0.62
photoluminescence quantum yield (in CC#N): 0.72
photoluminescence quantum yield (in CC(C)O): 0.58
photoluminescence quantum yield (in CCO): 0.49
photoluminescence quantum yield (in CN(C)C=O): 0.63
photoluminescence quantum yield (in CO): 0.44
photoluminescence quantum yield (in CS(C)=O): 0.61
photoluminescence quantum yield (in O): 0.27
photoluminescence quantum yield (in OCC(O)CO): 0.38

SMILES: O=C1c2ccccc2-c2ccccc21
photoluminescence quantum yield (in C1CCCCC1): 0.0004
photoluminescence quantum yield (in CC#N): 0.027
photoluminescence quantum yield (in CCO): 0.0009
photoluminescence quantum yield (in c1ccccc1): 0.0078

SMILES: C1=Cc2ccc(N(c3ccccc3)c3ccccc3)cc2Cc2cc(N(c3ccccc3)c3ccccc3)ccc21
photoluminescence quantum yield (in ClCCl): 0.99

SMILES: O=c1c2ccccc2sc2ccc(-n3c4ccccc4c4ccccc43)cc12
photoluminescence quantum yield (in O=P(c1ccccc1)(c1ccccc1)c1ccccc1Oc1ccccc1P(=O)(c1ccccc1)c1ccccc1): 0.512

SMILES: CCCCCCC1(CCCCCC)c2cc(-c3nc(-c4ccc5c(c4)C(CCCCCC)(CCCCCC)c4cc(N6c7ccccc7Sc7ccccc76)ccc4-5)nc(-c4ccc5c(c4)C(CCCCCC)(CCCCCC)c4cc(N6c7ccccc7Sc7ccccc76)ccc4-5)n3)ccc2-c2ccc(N3c4ccccc4Sc4ccccc43)cc21
photoluminescence quantum yield (in C1CCOC1): 0.01
photoluminescence quantum yield (in CCCCCC): 0.04
photoluminescence quantum yield (in Cc1ccccc1): 0.02
photoluminescence quantum yield (in ClCCl): 0.003

SMILES: CC(C)(C)C1CCC(=CS/C=C/c2ccc(-c3ccc(/C=C/SC=C4CCC(C(C)(C)C)CC4)cc3)cc2)CC1 (stereo not given)
photoluminescence quantum yield (in ClCCl): 0.233

SMILES: CC(=O)c1c(N[C@@H](CS)C(=O)O)c2ccc(N(C)C)cc2oc1=O
photoluminescence quantum yield (in ClCCl): 0.0025

SMILES: CCCCC1(CCCC)c2cc(C#Cc3ccc4ccc5cccc6ccc3c4c56)ccc2-c2ccc(C#Cc3ccc4ccc5cccc6ccc3c4c56)cc21
photoluminescence quantum yield (in Cc1ccccc1): 0.99

SMILES: COc1ccc2c(c1)c1cc(OC)ccc1n2-c1cc(Cl)c([C](c2c(Cl)cc(Cl)cc2Cl)c2c(Cl)cc(Cl)cc2Cl)c(Cl)c1
photoluminescence quantum yield (in C1CCCCC1): 0.006

SMILES: COc1ccc(/C=C/C2=[O+][B-](F)(F)OC(/C=C/c3ccc(OC)cc3)=C2c2ccccc2)cc1
photoluminescence quantum yield (in CC#N): 0.42
photoluminescence quantum yield (in CC(C)=O): 0.41
photoluminescence quantum yield (in CCOC(C)=O): 0.34
photoluminescence quantum yield (in CCOCC): 0.27
photoluminescence quantum yield (in ClC(Cl)(Cl)Cl): 0.24
photoluminescence quantum yield (in ClCCl): 0.41

SMILES: Cc1cc(-c2ccc(-c3ccccc3)cc2)nc(-c2ccc(-n3c4ccccc4c4ccccc43)cc2)n1
photoluminescence quantum yield (in C1CCOC1): 0.22
photoluminescence quantum yield (in CN(C)C=O): 0.24
photoluminescence quantum yield (in Cc1ccccc1): 0.24
photoluminescence quantum yield (in ClC(Cl)Cl): 0.43

SMILES: COc1ccc(-c2csc(/C(C#N)=N\Nc3ccc(C#N)cc3)n2)cc1
photoluminescence quantum yield (in CC#N): 0.001
photoluminescence quantum yield (in CCO): 0.002
photoluminescence quantum yield (in CN(C)C=O): 0
photoluminescence quantum yield (in Cc1ccccc1): 0.002
photoluminescence quantum yield (in ClCCl): 0.002

SMILES: CCc1ccc(-c2nc(-c3ccc(-n4c5ccccc5c5ccccc54)cc3)cc(-c3ccc(-n4c5ccccc5c5ccccc54)cc3)n2)cc1
photoluminescence quantum yield (in C1CCOC1): 0.6
photoluminescence quantum yield (in CN(C)C=O): 0.74
photoluminescence quantum yield (in Cc1ccccc1): 0.71
photoluminescence quantum yield (in ClC(Cl)Cl): 0.58

SMILES: c1ccc(-c2c3ccc(=[N+]4CCCCC4)cc-3oc3cc(N4CCCCC4)ccc23)cc1
photoluminescence quantum yield (in CCO): 0.3
photoluminescence quantum yield (in ClCCl): 0.89

SMILES: CC[N+](CC)=c1ccc2nc3c(cc(NCCC(=O)NC(C)C(=O)OC)c4ccccc43)oc-2c1 (stereo not given)
photoluminescence quantum yield (in CCO): 0.18
photoluminescence quantum yield (in O): 0.13

SMILES: C(=C1c2ccccc2CCc2ccccc21)c1ccc(-c2cc(-c3ccc(C=C4c5ccccc5CCc5ccccc54)cc3)cc(-c3ccc(C=C4c5ccccc5CCc5ccccc54)cc3)c2)cc1
photoluminescence quantum yield (in C1CCOC1): 0.0045

SMILES: C[Si]1(C)O[Si](C)(C)c2cc3nc4ccc([N+](=O)[O-])cc4c(-c4ccccc4)c3cc2[Si](C)(C)O1
photoluminescence quantum yield (in ClCCl): 0.44

SMILES: CC[N+]1(CC)CN2C(=N1)C(C(=O)O)=Cc1cc(Cl)ccc12
photoluminescence quantum yield (in O): 0.352

The remaining lines, values ahead:

photoluminescence quantum yield (in C1CCCCC1): 0.84
photoluminescence quantum yield (in CC#N): 0.81
photoluminescence quantum yield (in CC(C)O): 0.84
photoluminescence quantum yield (in CO): 0.72
photoluminescence quantum yield (in CS(C)=O): 0.91
photoluminescence quantum yield (in ClC(Cl)Cl): 0.87
photoluminescence quantum yield (in c1ccccc1): 0.85
SMILES: CN(C)c1ccc2nc(-c3ccc(C(=O)OC(C)(C)C)cc3)sc2c1

photoluminescence quantum yield (in C1COCCO1): 0.466
photoluminescence quantum yield (in CC#N): 0.048
photoluminescence quantum yield (in CCO): 0.073
photoluminescence quantum yield (in CCOC(C)=O): 0.186
photoluminescence quantum yield (in O): 0.0069
SMILES: CN1C(=O)/C(=C/c2ccncc2)N=C1c1ccccc1

photoluminescence quantum yield (in C1CCCCC1): 0.92
SMILES: CCCC1(CCC)c2cc(-c3ccc(C(C)(C)CC)cc3)ccc2-c2ccc(-c3ccc(C(C)(C)CC)cc3)cc21

photoluminescence quantum yield (in ClCCl): 0
SMILES: F[B-]1(F)n2c(c(-c3ccccc3)c(-c3cccs3)c2-c2ccccc2)N=C2C(c3ccccc3)=C(c3cccs3)C(c3ccccc3)=[N+]21

photoluminescence quantum yield (in C1CCOC1): 0.56
SMILES: C(=C\c1cc2ccccc2c2ccccc12)/c1c2ccccc2cc2ccccc12

photoluminescence quantum yield (in c1ccccc1): 0.076
SMILES: COc1ccc(-c2nc3ccccc3oc2=O)cc1

photoluminescence quantum yield (in ClCCl): 0.16
SMILES: CCOc1cccc2c1O[B-](F)(F)[n+]1c3c(c4c(c1-2)-c1ccccc1CC4)-c1ccccc1CC3

photoluminescence quantum yield (in C1CCCCC1): 0.47
photoluminescence quantum yield (in CCOC(C)=O): 0.13
SMILES: CC1=[N+]2C(=C(c3ccc(C(=O)c4ccccc4)cc3)c3ccc(C)n3[B-]2(F)F)C=C1c1cc2n(c1)[B-](F)(F)[N+]1=CC=CC1=C2c1c(C)cc(C)cc1C

photoluminescence quantum yield (in ClC(Cl)Cl): 0.85
SMILES: CCCCCCCCC1(CCCCCCCC)c2cc(-c3ccccc3)ccc2-c2ccc(-c3ccccc3)cc21

photoluminescence quantum yield (in CO): 0.28
SMILES: COc1cccc(-c2nc(-c3ccccc3)c(-c3ccccc3)[nH]2)c1

photoluminescence quantum yield (in CS(C)=O): 0.6
SMILES: N#Cc1c(/C=C/c2ccc(N(c3ccccc3)c3ccccc3)cc2)cc(-c2ccccc2)cc1N1CCCCC1

photoluminescence quantum yield (in ClCCl): 0.61
SMILES: CCCCn1c(-c2ccc(-c3nnc(-c4ccccc4)o3)cc2)nc2c3ccccc3c3ccccc3c21

photoluminescence quantum yield (in ClCCl): 0.17
SMILES: CC(C)(C)c1ccc(-c2cc(-c3ccc(-c4cc(-c5ccc(C(C)(C)C)cc5)c(C#N)s4)s3)sc2C#N)cc1

photoluminescence quantum yield (in CO): 0.0074
photoluminescence quantum yield (in ClCCl): 0.24
SMILES: CCCCCCN(CCCCCC)c1ccc(C#Cc2ccc(C(F)(F)F)cc2)cc1

photoluminescence quantum yield (in ClCCl): 0.1
SMILES: COc1ccc(C(=O)NC(C)(C)C)c2c1ccc1c3ccccc3c3ccccc3c12

photoluminescence quantum yield (in C1CCOC1): 0.38
SMILES: c1ccc(-c2cnc3nn4ccccc4c3c2)cc1

photoluminescence quantum yield (in ClCCl): 0.75
SMILES: c1ccc(-c2c3ccccc3c(-c3ccc4ccccc4c3)c3ccccc23)nc1

photoluminescence quantum yield (in ClC(Cl)Cl): 0.16
SMILES: FC(F)(F)c1ccc(-c2nc(-c3ccc(C(F)(F)F)cc3)n3ccccc23)cc1

photoluminescence quantum yield (in CCOC(C)=O): 0.82
SMILES: O=C(O)c1cc2c(cc3ccc4cccc5ccc2c3c45)[nH]1

— the Deep4Chem optical property database
